Measurements taken from patent EP4678638A1, “NEW E3 UBIQUITIN LIGASE LIGAND, PROTEIN DEGRADATION AGENT AND USE THEREOF” (priority 2023, dated 2024).

Target: T1, human Cereblon WT GST-tagged protein (Homo sapiens, UniProt Q96SW2)
T1 construct: purchased CISBIO 64BDCRBNPEH
Test: CRBN binding, HTRF (CEREBLON BINDING kit)
Settings: HTRF; for inhibition at 0.5 µM / inhibition at 2 µM / Inhibition rate (%) at 0.5µM / Inhibition rate (%) at 2 µM: Table II-2, CRBN binding screening; for inhibition at 0.5 µM: read-out: Inhibition rate (%) at 0.5µM; for inhibition at 2 µM: read-out: Inhibition rate (%) at 2 µM; for IC50: Table II-1, CRBN binding
Experimental: The CEREBLON BINDING kits (specification: 10,000 tests; product number: Catalog # 64BDCRBNPEH; CISBIO company) was used to determine the CRBN binding ability of the compounds to be tested through a HTRF method (homogeneous time-resolved fluorescence). The specific methods are as follows: • 1. […] Then, 2.5 µL of human Cereblon WT GST-tagged protein solution was added to each well. Finally, 5 µL of the thoroughly mixed Thalidomide-Re reagent and GST Eu antibody working solution were added to each of the aforementioned wells. […] The blank control wells were sequentially added with 2.5 µL of diluent #9 (1X) solution, 2.5 µL of binding buffer, and 5 µL of thoroughly mixed Thalidomide-Re reagent and GST Eu antibody working solution. • 4. After sealing and incubating the solutions in the aforementioned wells at room temperature for 3 hours, the […] at emission wavelengths of 620 nm and 665 nm were detected by the HTRF method using a Spark microplate reader (V3.1 SP1).

T1 sequence (Q96SW2 whole entry): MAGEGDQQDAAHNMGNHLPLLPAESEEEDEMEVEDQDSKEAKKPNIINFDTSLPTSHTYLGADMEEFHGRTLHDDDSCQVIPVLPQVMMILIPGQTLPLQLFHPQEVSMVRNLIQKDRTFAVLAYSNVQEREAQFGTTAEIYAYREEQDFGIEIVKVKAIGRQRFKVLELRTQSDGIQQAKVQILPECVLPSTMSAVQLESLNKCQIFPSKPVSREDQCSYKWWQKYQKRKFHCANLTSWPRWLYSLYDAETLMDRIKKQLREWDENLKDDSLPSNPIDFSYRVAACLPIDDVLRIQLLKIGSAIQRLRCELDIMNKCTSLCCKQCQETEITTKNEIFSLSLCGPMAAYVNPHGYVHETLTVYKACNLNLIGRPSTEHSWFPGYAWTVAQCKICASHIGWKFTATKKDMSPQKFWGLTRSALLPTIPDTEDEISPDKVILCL

SMILES	inhibition at 0.5 µM	inhibition at 2 µM	IC50	Inhibition rate (%) at 0.5µM	Inhibition rate (%) at 2 µM
CNC(=O)c1ccccc1Nc1cc(Nc2cc(C)c(C3CCN(Cc4cccc(N5CCC(=O)NC5=O)c4)CC3)cc2OC(C)C)ncc1C(F)(F)F [GT-07668, 2-((2-((4-(1-(3-(2,4-dioxotetrahydropyrimidin-1(2H)-yl)benzyl)piperidin-4-yl)-2-isopropoxy-5-methylphenyl)amino)-5-(trifluoromethyl)pyridin-4-yl)amino)-N-methylbenzamide]				a2 (20% < a2 ≤ 30%)	a5 (53% < a5 ≤ 60%)
O=C1CCN(c2ccc(CN3CCN(C4CCN(c5ccc([C@@H]6c7ccc(O)cc7CC[C@@H]6c6ccccc6)cc5)CC4)CC3)c(F)c2)C(=O)N1 [GT-04687, 1-(3-fluoro-4-((4-(1-(4-((1R,2S)-6-hydroxy-2-phenyl-1,2,3,4-tetrahydronaphthalen-1-yl)phenyl)piperidin-4-yl)piperazin-1-yl)methyl)phenyl)dihydropyr imidine-2,4(1H,3H)-dione]			1000 to 1900 nM		
Cn1cc(-c2cc(S(C)(=O)=O)ccc2OCc2ccc(C3CCC(=O)NC3=O)c(F)c2)c2cc[nH]c2c1=O (stereo not drawn) [GT-04640, 3-(2-fluoro-4-((2-(6-methyl-7-oxo-6,7-dihydro-1H-pyrrolo[2,3-c]pyridin-4-yl)-4-(methylsulfonyl)phenoxy)methyl)phenyl)piperidine-2,6-dione]	60 to 80%	80 to 100%			
CC1(C)CCC(c2ccc(Cl)cc2)=C(CN2CCN(c3ccc(C(=O)NS(=O)(=O)c4ccc(N[C@H](CCN5CC6CCC5CN6Cc5ccc(C6CCC(=O)NC6=O)cc5)CSc5ccccc5)c(S(=O)(=O)C(F)(F)F)c4)cc3)CC2)C1 (stereo partly drawn) [GT-07878, 4-(4-((4'-chloro-4,4-dimethyl-3,4,5,6-tetrahydro-[1,1'-biphenyl]-2-yl)methyl)piperazin-1-yl)-N-((4-(((2R)-4-(5-(4-(2,6-dioxopiperidin-3-yl)benzyl)-2,5-diazabicyclo[2.2.2]octan-2-yl)-1-(phenylthio)butan-2-yl)amino)-3-((trifluoromethyl)sulfonyl)phenyl)sulfonyl)benzamide]				a3 (30% < a3 ≤ 40%)	a5 (53% < a5 ≤ 60%)
Cc1ccc(C(=O)Nc2ccc(N3CCC(N(C)Cc4ccc(C5CCC(=O)NC5=O)c(F)c4)CC3)c(C(F)(F)F)c2)cc1C#Cc1cnc2cccnn12 (stereo not drawn) [GT-04107, N-(4-(4-((4-(2,6-dioxopiperidin-3-yl)-3-fluorobenzyl)(methyl)amino)piperidin-1-yl)-3-(trifluoromethyl)phenyl)-3-(imidazo[1,2-b]pyridazin-3-ylethynyl)-4-methylbenzamide]	30 to 40%	80 to 100%			
O=C1CCN(c2cccc(CN3CCN(C4CCN(c5ccc([C@@H]6c7ccc(O)cc7CC[C@@H]6c6ccccc6)cc5)CC4)CC3)c2)C(=O)N1 [GT-04685, 1-(3-((4-(1-(4-((1R,2S)-6-hydroxy-2-phenyl-1,2,3,4-tetrahydronaphthalen-1-yl)phenyl)piperidin-4-yl)piperazin-1-yl)methyl)phenyl)dihydropyr imidine-2,4(1H,3H)-dione]			500 to 1000 nM		
Cn1cc(-c2cc(S(C)(=O)=O)ccc2OCc2ccc(N3CCC(=O)NC3=O)c(F)c2)c2cc[nH]c2c1=O [GT-04643, 1-(2-fluoro-4-((2-(6-methyl-7-oxo-6,7-dihydro-1H-pyrrolo[2,3-c]pyridin-4-yl)-4-(methylsulfonyl)phenoxy)methyl)phenyl)dihydropyrimidine-2,4(1H,3H)-dione]	30 to 40%	60 to 80%			
CN(c1nccnc1CNc1nc(Nc2ccc(N3CCN(Cc4ccc(N5CCC(=O)NC5=O)cn4)CC3)cc2)ncc1C(F)(F)F)S(C)(=O)=O [GT-07403, N-(3-(((2-((4-(4-((5-(2,4-dioxotetrahydropyrimidin-1(2H)-yl)pyridin-2-yl)methyl)piperazin-1-yl)phenyl)amino)-5-(trifluoromethyl)pyrimidin-4-yl)amino)methyl)pyrazin-2-yl)-N-methylmethanesulfonamide]	30 to 40%	60 to 80%			

More lines, main results first:

inhibition at 0.5 µM	inhibition at 2 µM	IC50	SMILES	Inhibition rate (%) at 0.5µM	Inhibition rate (%) at 2 µM
40 to 53%	80 to 100%		O=C1CCN(c2cncc(CN3CCC(n4cc(NC(=O)c5cnn6ccc(N7C[C@H]8C[C@@H]7CO8)nc56)c(C(F)F)n4)CC3)c2)C(=O)N1 [GT-07774, 5-((1R,4R)-2-oxa-5-azabicyclo[2.2.1]heptan-5-yl)-N-(3-(difluoromethyl)-1-(1-((5-(2,4-dioxotetrahydropyrimidin-1(2H)-yl)pyridin-3-yl)methyl)piperidin-4-yl)-1H-pyrazol-4-yl)pyrazolo[1,5-a]pyrimidine-3-carboxamide]		
30 to 40%	60 to 80%		O=C1CCN(c2cnc(F)c(CN3CCC(n4cc(NC(=O)c5cnn6ccc(N7C[C@H]8C[C@@H]7CO8)nc56)c(C(F)F)n4)CC3)c2)C(=O)N1 [GT-07791, 5-((1R,4R)-2-oxa-5-azabicyclo[2.2.1]heptan-5-yl)-N-(3-(difluoromethyl)-1-(1-((5-(2,4-dioxotetrahydropyrimidin-1(2H)-yl)-2-fluoropyridin-3-yl)methyl)piperidin-4-yl)-1H-pyrazol-4-yl)pyrazolo[1,5-a]pyrimidine-3-carboxamide]		
30 to 40%	53 to 60%		CC(C)(O)c1cc2nn(C3CCN(Cc4cncc(N5CCC(=O)NC5=O)c4)CC3)cc2cc1NC(=O)c1cccc(C(F)(F)F)n1 [GT-07540, N-(2-(1-((5-(2,4-dioxotetrahydropyrimidin-1(2H)-yl)pyridin-3-yl)methyl)piperidin-4-yl)-6-(2-hydroxypropan-2-yl)-2H-indazol-5-yl)-6-(trifluoromethyl)picolinamide]		
53 to 60%	80 to 100%		CC(=O)c1c(C)c2cnc(Nc3ccc(N4CCN(Cc5ccc(C6CCC(=O)NC6=O)cn5)CC4)cn3)nc2n(C2CCCC2)c1=O (stereo not drawn) [GT-07483, 3-(6-((4-(6-((6-acetyl-8-cyclopentyl-5-methyl-7-oxo-7,8-dihydropyrido[2,3-d]pyrimidin-2-yl)amino)pyridin-3-yl)piperazin-1-yl)methyl)pyridin-3-yl)piperidine-2,6-dione]		
53 to 60%	80 to 100%		CN(Cc1cc(N2CCC(=O)NC2=O)cnc1F)C1CCN(c2ccc(-c3cc(F)c4c(c3)C(=O)N(C(C(=O)Nc3nccs3)c3ncn5c3CCC5)C4)cc2)CC1 (stereo not drawn) [GT-07823, 2-(6,7-dihydro-5H-pyrrolo[1,2-c]imidazol-1-yl)-2-(6-(4-(4-(((5-(2,4-dioxotetrahydropyrimidin-1(2H)-yl)-2-fluoropyridin-3-yl)methyl)(methyl)amino)piperidin-1-yl)phenyl)-4-fluoro-1-oxoisoindolin-2-yl)-N-(thiazol-2-yl)acetamide]		
30 to 40%	80 to 100%		O=C1CCC(c2cncc(CN3CCC(n4cc(NC(=O)c5cnn6ccc(N7CCOCC7)nc56)c(C(F)F)n4)CC3)c2)C(=O)N1 (stereo not drawn) [GT-07770, N-(3-(difluoromethyl)-1-(1-((5-(2,6-dioxopiperidin-3-yl)pyridin-3-yl)methyl)piperidin-4-yl)-1H-pyrazol-4-yl)-5-morpholinopyrazolo[1,5-a]pyrimidine-3-carboxamide]		
20 to 30%	53 to 60%		O=C1CCN(c2cnc(CN3CCN(c4ccc(-c5cc(F)c6c(c5)C(=O)N(C(C(=O)Nc5nccs5)c5ncn7c5CCC7)C6)cc4)CC3)cn2)C(=O)N1 (stereo not drawn) [GT-07761, 2-(6,7-dihydro-5H-pyrrolo[1,2-c]imidazol-1-yl)-2-(6-(4-(4-((5-(2,4-dioxotetrahydropyrimidin-1(2H)-yl)pyrazin-2-yl)methyl)piperazin-1-yl)phenyl)-4-fluoro-1-oxoisoindolin-2-yl)-N-(thiazol-2-yl)acetamide]		
20 to 30%	60 to 80%		CC(C)(O)c1cc2nc(C3CCN(Cc4cncc(C5CCC(=O)NC5=O)c4)CC3)oc2cc1NC(=O)c1cccc(C(F)(F)F)n1 (stereo not drawn) [GT-07630, N-(2-(1-((5-(2,6-dioxopiperidin-3-yl)pyridin-3-yl)methyl)piperidin-4-yl)-5-(2-hydroxypropan-2-yl)benzo[d]oxazol-6-yl)-6-(trifluoromethyl)picolinamide]		
10 to 20%	53 to 60%		COc1cc2nn(C3CCN(Cc4cncc(C5CCC(=O)NC5=O)c4)CC3)cc2cc1NC(=O)c1cccc(C(F)(F)F)n1 (stereo not drawn) [GT-07536, N-(2-(1-((5-(2,6-dioxopiperidin-3-yl)pyridin-3-yl)methyl)piperidin-4-yl)-6-methoxy-2H-indazol-5-yl)-6-(trifluoromethyl)picolinamide]		
40 to 53%	80 to 100%		O=C1CCC(c2cnc(F)c(CN3CCC(n4cc(NC(=O)c5cnn6ccc(N7CCOCC7)nc56)c(C(F)F)n4)CC3)c2)C(=O)N1 (stereo not drawn) [GT-07767, N-(3-(difluoromethyl)-1-(1-((5-(2,6-dioxopiperidin-3-yl)-2-fluoropyridin-3-yl)methyl)piperidin-4-yl)-1H-pyrazol-4-yl)-5-morpholinopyrazolo[1,5-a]pyrimidine-3-carboxamide]		
40 to 53%	80 to 100%		O=C1CCC(c2cncc(CN3CCC(n4cc(NC(=O)c5cnn6ccc(N7C[C@H]8C[C@@H]7CO8)nc56)c(C(F)F)n4)CC3)c2)C(=O)N1 (stereo partly drawn) [GT-07778, 5-((1R,4R)-2-oxa-5-azabicyclo[2.2.1]heptan-5-yl)-N-(3-(difluoromethyl)-1-(1-((5-(2,6-dioxopiperidin-3-yl)pyridin-3-yl)methyl)piperidin-4-yl)-1H-pyrazol-4-yl)pyrazolo[1,5-a]pyrimidine-3-carboxamide]		
